Measurements as given in patent US11541107B2, “Peptides and T cells for use in immunotherapeutic treatment of various cancers” (Immatics Biotechnologies GmbH, priority 2015, dated 2023).

Tested on: HLA-A*24
Test: MHC binding assay, UV-ligand exchange with beta2m ELISA, HLA-A*24
Parameters: species or system human
Details: binding to HLA-A*24 ranged by peptide exchange yield (UV-ligand exchange, beta2m ELISA)
Text: Candidate peptides for T cell based therapies according to the present invention were further tested for their MHC binding capacity (affinity). The individual peptide-MHC complexes were produced by UV-ligand exchange, where a UV-sensitive peptide is cleaved upon UV-irradiation, and exchanged with the peptide of interest as analyzed. Only peptide candidates that can effectively bind and stabilize the peptide-receptive MHC molecules prevent dissociation of the MHC complexes. To determine the yield of the exchange reaction, an ELISA was performed based on the detection of the light chain (ß2 m) of stabilized MHC complexes. The assay was performed as generally described in Rodenko et al. (Rodenko et al., 2006).
96 well MAXISorp plates (NUNC) were coated over night with 2 ug/ml streptavidin in PBS at room temperature, washed 4× and blocked for 1 h at 37° C. in 2% BSA containing blocking buffer. […] Peptide-MHC monomers of the UV-exchange reaction were diluted 100 fold in blocking buffer. Samples were incubated for 1 h at 37° C., washed four times, incubated with 2 ug/ml HRP conjugated anti-β2 m for 1h at 37° C., washed again and detected with TMB solution that is stopped with […]. Absorption was measured at 450 nm. Candidate peptides that show a high exchange yield (preferably higher than 50%, most preferred higher than 75%) are generally preferred for a generation and production of antibodies or fragments thereof, and/or T cell receptors or fragments thereof, as they show sufficient avidity to the MHC molecules and prevent dissociation of the MHC complexes.

Substance | Peptide exchange
210 (IYAGVGEFSF; listed as Homo sapiens) [compound 210] | ++++ (>=75% = ++++)
207 (LYSDAFKFIVF; listed as Homo sapiens) [compound 207] | +++ (50%-75% = +++)
251 (VYTKALSSL; listed as Homo sapiens) [compound 251] | +++ (50%-75% = +++)
215 (SYVASFFLL; listed as Homo sapiens) [compound 215] | ++ (20%-49% = ++)
169 (NYITGKGDVF; listed as Homo sapiens) [compound 169] | +++ (50%-75% = +++)
197 (IFTDIFHYL; listed as Homo sapiens) [compound 197] | ++++ (>=75% = ++++)
237 (KYVGQLAVL; listed as Homo sapiens) [compound 237] | +++ (50%-75% = +++)
128 (VYPFDWQYI; listed as Homo sapiens) [compound 128] | ++++ (>=75% = ++++)
198 (DYVGFTLKI; listed as Homo sapiens) [compound 198] | ++ (20%-49% = ++)
246 (KYLSVQLTL; listed as Homo sapiens) [compound 246] | ++ (20%-49% = ++)
173 (QYLEKYYNL; listed as Homo sapiens) [compound 173] | ++++ (>=75% = ++++)
214 (KYLMELTLI; listed as Homo sapiens) [compound 214] | +++ (50%-75% = +++)
139 (IFGIFPNQF; listed as Homo sapiens) [compound 139] | +++ (50%-75% = +++)
152 (KFFDDLGDELLF; listed as Homo sapiens) [compound 152] | ++ (20%-49% = ++)
224 (PYFFANQEF; listed as Homo sapiens) [compound 224] | +++ (50%-75% = +++)
123 (VYTPVLEHL; listed as Homo sapiens) [compound 123] | ++ (20%-49% = ++)
204 (EYLSTCSKL; listed as Homo sapiens) [compound 204] | +++ (50%-75% = +++)
208 (TYLEKIDGF; listed as Homo sapiens) [compound 208] | ++++ (>=75% = ++++)
147 (LYLAFPLAF; listed as Homo sapiens) [compound 147] | +++ (50%-75% = +++)

Substance | Peptide exchange
140 (RYLINSYDF; listed as Homo sapiens) [compound 140] | ++++ (>=75% = ++++)
107 (KYFPYLVVI; listed as Homo sapiens) [compound 107] | +++ (50%-75% = +++)
149 (SYGTVSQI; listed as Homo sapiens) [compound 149] | ++++ (>=75% = ++++)
110 (SYPKIIEEF; listed as Homo sapiens) [compound 110] | +++ (50%-75% = +++)
221 (KYIGNLDLL; listed as Homo sapiens) [compound 221] | ++++ (>=75% = ++++)
131 (EYLDRIGQLFF; listed as Homo sapiens) [compound 131] | +++ (50%-75% = +++)
216 (FYVNVKEQF; listed as Homo sapiens) [compound 216] | +++ (50%-75% = +++)
185 (QYLVHVNDL; listed as Homo sapiens) [compound 185] | ++++ (>=75% = ++++)
119 (VYRVYVTTF; listed as Homo sapiens) [compound 119] | +++ (50%-75% = +++)
233 (QYLTAAALHNL; listed as Homo sapiens) [compound 233] | +++ (50%-75% = +++)
188 (GYKTFFNEF; listed as Homo sapiens) [compound 188] | +++ (50%-75% = +++)
183 (PYLQDVPRI; listed as Homo sapiens) [compound 183] | +++ (50%-75% = +++)
250 (KYPDIASPTF; listed as Homo sapiens) [compound 250] | ++ (20%-49% = ++)
129 (KYIDYLMTW; listed as Homo sapiens) [compound 129] | ++++ (>=75% = ++++)
159 (IYEETRGVL; listed as Homo sapiens) [compound 159] | +++ (50%-75% = +++)
170 (QYPFHVPLL; listed as Homo sapiens) [compound 170] | ++++ (>=75% = ++++)
232 (YYLSDSPLL; listed as Homo sapiens) [compound 232] | +++ (50%-75% = +++)
176 (FYINGQYQF; listed as Homo sapiens) [compound 176] | +++ (50%-75% = +++)
243 (SYLELANTL; listed as Homo sapiens) [compound 243] | +++ (50%-75% = +++)

More lines, now with the values ahead:

Peptide exchange | Substance
++++ (>=75% = ++++) | 265 (SYLNEAFSF; listed as Homo sapiens) [compound 265]
+++ (50%-75% = +++) | 300 (TYPSQLPSL; listed as Homo sapiens) [compound 300]
+++ (50%-75% = +++) | 373 (GYISNGELF; listed as Homo sapiens) [compound 373]
+++ (50%-75% = +++) | 345 (EYNSDLHQFF; listed as Homo sapiens) [compound 345]
+++ (50%-75% = +++) | 384 (RYFDVGLHNF; listed as Homo sapiens) [compound 384]
++ (20%-49% = ++) | 288 (VYPDTVALTF; listed as Homo sapiens) [compound 288]
++++ (>=75% = ++++) | 252 (AFGQETNVPLNNF; listed as Homo sapiens) [compound 252]
++++ (>=75% = ++++) | 311 (EYLQNLNHI; listed as Homo sapiens) [compound 311]
+++ (50%-75% = +++) | 295 (SYLVIHERI; listed as Homo sapiens) [compound 295]
+++ (50%-75% = +++) | 387 (KYTEKLEEI; listed as Homo sapiens) [compound 387]
++++ (>=75% = ++++) | 290 (KYGDFKLLEF; listed as Homo sapiens) [compound 290]
+++ (50%-75% = +++) | 347 (VYAEVNSL; listed as Homo sapiens) [compound 347]
+++ (50%-75% = +++) | 381 (KYPASSSVF; listed as Homo sapiens) [compound 381]
+++ (50%-75% = +++) | 283 (EYQEIFQQL; listed as Homo sapiens) [compound 283]
+++ (50%-75% = +++) | 279 (VWLPASVLF; listed as Homo sapiens) [compound 279]
+++ (50%-75% = +++) | 350 (KYGNFIDKL; listed as Homo sapiens) [compound 350]
++++ (>=75% = ++++) | 280 (TYNPNLQDKL; listed as Homo sapiens) [compound 280]
++++ (>=75% = ++++) | 297 (TYIDTRTVF; listed as Homo sapiens) [compound 297]

Peptide exchange | Substance
+++ (50%-75% = +++) | 315 (FYIPHVPVSF; listed as Homo sapiens) [compound 315]
+++ (50%-75% = +++) | 281 (NYSPGLVSLIL; listed as Homo sapiens) [compound 281]
+++ (50%-75% = +++) | 269 (QYPYLQAFF; listed as Homo sapiens) [compound 269]
+++ (50%-75% = +++) | 317 (VFDTSIAQLF; listed as Homo sapiens) [compound 317]
+++ (50%-75% = +++) | 341 (SYLTQHQRI; listed as Homo sapiens) [compound 341]
+++ (50%-75% = +++) | 375 (KYTDYILKI; listed as Homo sapiens) [compound 375]
+++ (50%-75% = +++) | 273 (IYGEKLQFIF; listed as Homo sapiens) [compound 273]
+++ (50%-75% = +++) | 307 (GYAFTLPLF; listed as Homo sapiens) [compound 307]
+++ (50%-75% = +++) | 299 (KYQYVLNEF; listed as Homo sapiens) [compound 299]
++++ (>=75% = ++++) | 260 (VYMNVMTRL; listed as Homo sapiens) [compound 260]
+++ (50%-75% = +++) | 314 (RYFKGDYSI; listed as Homo sapiens) [compound 314]
++ (20%-49% = ++) | 362 (VYNYAEQTL; listed as Homo sapiens) [compound 362]
++++ (>=75% = ++++) | 319 (KYSDVKNLI; listed as Homo sapiens) [compound 319]
+++ (50%-75% = +++) | 383 (RYKPGEPITF; listed as Homo sapiens) [compound 383]
+++ (50%-75% = +++) | 369 (VYTHEVVTL; listed as Homo sapiens) [compound 369]
++ (20%-49% = ++) | 268 (IFITKALQI; listed as Homo sapiens) [compound 268]
+++ (50%-75% = +++) | 372 (VYVIEPHSMEF; listed as Homo sapiens) [compound 372]
